ChEMBL document CHEMBL5512599, “Synthetic non-toxic anti-biofilm agents as a strategy in combating bacterial resistance” (Eur J Med Chem, 2023)
Values after ≈ are worked out from the molar mass of the structure shown.

Columns and labels:
Staphylococcus aureus [1] = assay: Antibacterial activity against Staphylococcus aureus ATCC 25923 assessed as bacterial growth inhibition measured after 18 hrs by CLSI protocol based two-fold serial microdilution method; type: functional, organism-based; conditions: ATCC 25923, 18 h
Acinetobacter baumannii = assay: Antibacterial activity against Acinetobacter baumannii ATCC 19606 assessed as growth inhibition incubated for 18 hrs by resazurin dye based assay; type: functional, organism-based; conditions: ATCC 19606, 18 h
Pseudomonas aeruginosa [2] = assay: Antibiofilm activity against Pseudomonas aeruginosa PAO1 assessed as inhibition of biofilm formation at 100 microg/ml relative to control; type: functional; set-up: scale not given: the % may be the effect or the level left; conditions: dose 100 µg/ml
Staphylococcus aureus [3] = assay: Antibacterial activity against […] Staphylococcus aureus ATCC 29213 assessed as reduction in bacterial growth incubated for 18 hrs by mueller hinton broth dilution method; type: functional, organism-based; conditions: ATCC 29213, 18 h
Staphylococcus aureus [4] = assay: Antibiofilm activity against Methicillin-sensitive Staphylococcus aureus ATCC 29213 assessed as reduction in biofilm formation at 200 uM incubated for 24 hrs by crystal violet staining based analysis relative to control; type: functional; set-up: scale not given: the % may be the effect or the level left
Pseudomonas aeruginosa [5] = assay: Antibiofilm activity against Pseudomonas aeruginosa ATCC 27853 assessed as reduction in biofilm formation at 1/6 times of MIC after 24 hrs by crystal violet staining based assay; type: functional; set-up: scale not given: the % may be the effect or the level left
Streptococcus mutans = assay: Antibiofilm activity against Streptococcus mutans ATCC 25175 assessed as inhibition of biofilm formation incubated for 24 hrs by crystal violet staining based analysis; type: functional, organism-based; conditions: ATCC 25175, 24 h
Klebsiella pneumoniae [6] = assay: Antibiofilm activity against Klebsiella pneumoniae ATCC 13882 assessed as inhibition of biofilm formation incubated for 24 hrs by crystal violet staining based broth microdilution method; type: functional, organism-based; conditions: ATCC 13882, 24 h
Klebsiella pneumoniae [7] = assay: Antibacterial activity against Klebsiella pneumoniae ATCC 13882 assessed as fold change in colistin MIC incubated for 16 to 18 hrs by broth microdilution method; type: functional; conditions: time 16-18 hrs
[8] = target: T1, Transcriptional regulator MvfR (Pseudomonas aeruginosa PA14, UniProt A0A072ZLE6); assay: Antagonist activity at PqsR in wild-type Pseudomonas aeruginosa PA14 assessed as reduction in AQ level at 0.2 uM by LCMS/MS analysis
T1 sequence (A0A072ZLE6 whole entry): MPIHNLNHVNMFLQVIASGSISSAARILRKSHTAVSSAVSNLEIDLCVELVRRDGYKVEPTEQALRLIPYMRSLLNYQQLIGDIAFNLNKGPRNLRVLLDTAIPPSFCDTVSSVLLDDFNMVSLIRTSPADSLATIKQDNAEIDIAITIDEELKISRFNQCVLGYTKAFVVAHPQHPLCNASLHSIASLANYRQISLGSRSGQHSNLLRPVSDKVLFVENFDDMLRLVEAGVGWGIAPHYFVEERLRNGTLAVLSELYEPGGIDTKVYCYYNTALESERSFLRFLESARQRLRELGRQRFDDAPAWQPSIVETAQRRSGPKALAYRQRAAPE

[9] = target: T1, Transcriptional regulator MvfR; assay: Antagonist activity at PqsR in wild-type Pseudomonas aeruginosa PAO1 assessed as reduction in AQ level at 0.2 uM by LCMS/MS analysis
[10] = Inhibition of quorum sensing system in Pseudomonas aeruginosa PAO1 assessed as inhibition of pyocyanin production at 12.5 uM incubated for 24 hrs by absorbance based assay relative to control
Pseudomonas aeruginosa [11] = assay: Antibiofilm activity against Pseudomonas aeruginosa PAO1 assessed as reduction in biofilm formation at 25 uM relative to control; type: functional; set-up: scale not given: the % may be the effect or the level left
Pseudomonas aeruginosa [12] = assay: Antibiofilm activity against Pseudomonas aeruginosa PAO1 assessed as reduction in biofilm formation at 12.5 uM relative to control; type: functional; set-up: scale not given: the % may be the effect or the level left
Pseudomonas aeruginosa [13] = assay: Antibiofilm activity against Pseudomonas aeruginosa PAO1 assessed as reduction in biofilm formation at 50 uM relative to control; type: functional; set-up: scale not given: the % may be the effect or the level left
Pseudomonas aeruginosa [14] = assay: Antibiofilm activity against wild type Pseudomonas aeruginosa PAO1 assessed as inhibition of biofilm formation at 100 uM incubated for 24 hrs by crystal violet staining based analysis relative to control; type: functional; set-up: scale not given: the % may be the effect or the level left
Pseudomonas aeruginosa [15] = assay: Antimicrobial activity against Pseudomonas aeruginosa PAO1 assessed as inhibition of microbial growth by microdilution broth method; type: functional
Pseudomonas aeruginosa [16] = assay: Antibiofilm activity against Pseudomonas aeruginosa PAO1 assessed as inhibition of biofilm formation at 10 microg/ml relative to control; type: functional; set-up: scale not given: the % may be the effect or the level left; conditions: dose 10 µg/ml
Staphylococcus aureus [17] = assay: Antibacterial activity against Staphylococcus aureus MTCC 96 assessed as reduction in microbial growth after 24 hrs by CLSI based microdilution method; type: functional
Micrococcus luteus = assay: Antibacterial activity against Micrococcus luteus MTCC 2470 assessed as inhibition of bacterial growth incubated for 24 hrs by agar well diffusion method; type: functional
Staphylococcus aureus [18] = assay: Antibacterial activity against Staphylococcus aureus MLS16 MTCC 2940 assessed as bacterial growth inhibition measured after 24 hrs by microdilution assay; type: functional
Staphylococcus aureus [19] = assay: Antibiofilm activity against Staphylococcus aureus ATCC 6538 assessed as inhibition of biofilm formation incubated for 24 hrs by crystal violet staining based analysis; type: functional, organism-based; conditions: ATCC 6538, 24 h
Pseudomonas aeruginosa [20] = assay: Antibiofilm activity against Pseudomonas aeruginosa PAO1 assessed as inhibition of biofilm formation incubated for 8 hrs by crystal violet based; type: functional, organism-based; conditions: PAO1, 8 h

With `C/C(=C\c1ccccc1)Cn1cc(CCCCCc2c[nH]c(N)n2)nn1` as the compound, how does the IC50 (Staphylococcus aureus [1]) read?
The IC50 was 0.81 µM.

What about the IC50 (Acinetobacter baumannii) of the same compound?
The IC50 was 0.98 µM.

Which Activity (Pseudomonas aeruginosa [2]) does the source give for `COc1ccccc1/C=C/C(=O)c1ccccc1O` here?
Its Activity is 57%.

With `Nc1ncc(C#CC2CCCC2)cn1` as the compound, how does the IC50 (Staphylococcus aureus [3]) read?
Its IC50 is 72 µM.

And the Activity (Staphylococcus aureus [4])?
The Activity was 85%.

With `COc1ccc(CC(=O)OC2OC(=O)C(Br)=C2Br)cc1OC` (stereo not drawn) as the compound, how does the Activity (Pseudomonas aeruginosa [5]) read?
The Activity was 63%.

With `CCOC(=O)c1nn(-c2ccc([N+](=O)[O-])cc2)cc1C(=O)c1cc2cc(CN3CCN(Cc4ccc5oc(C(=O)c6cn(-c7ccc([N+](=O)[O-])cc7)nc6C(=O)OCC)cc5c4)CC3)ccc2o1` as the compound, how does the IC50 (Streptococcus mutans) read?
Its IC50 is 5.8 µM.

What does the source list for `Nc1nccc(-c2cccc(NC(=O)c3cc(Br)cc(Br)c3)c2)n1`?
IC50 (Klebsiella pneumoniae [6]): 17.4 µM; fold change (FC) (Klebsiella pneumoniae [7]): 32

Which IC50 [8] does the source give for `O=CN1N=C(c2ccccc2)CC1c1cccc(Nc2ccnc3cc(Cl)ccc23)c1` (stereo not drawn) here?
The IC50 was 2.3 µM.

What about the IC50 [9] of the same compound?
The IC50 was 12.4 µM.

With `CCCCCCSSc1nc2ccccc2c(=O)[nH]1` as the compound, how does the inhibition [10] read?
The inhibition was 94%.

What about the Activity (Pseudomonas aeruginosa [11]) of the same compound?
The Activity was 43%.

And the Activity (Pseudomonas aeruginosa [12])?
The Activity was 38%.

What about the Activity (Pseudomonas aeruginosa [13]) of the same compound?
The Activity was 46%.

Which Activity (Pseudomonas aeruginosa [14]) does the source give for `Nc1nc2ccc(/C=C/c3ccccc3)cc2[nH]1` here?
Its Activity is 56%.

With `O=C(/C=C/c1ccc(O)c(O)c1)OCCc1ccc(Br)cc1` as the compound, how does the MIC (Pseudomonas aeruginosa [15]) read?
The MIC was greater than 512 µM.

And the Activity (Pseudomonas aeruginosa [16])?
The Activity was 33.69%.

With `CCCCCCCCc1ccc(C(F)(F)F)nc1OCc1cn(C#N)nn1` as the compound, how does the MIC (Staphylococcus aureus [17]) read?
Its MIC is 9.37 µM.

What about the MIC (Micrococcus luteus) of the same compound?
The MIC was 18.8 µM (≈ 7.15 µg/mL).

What about the MIC (Staphylococcus aureus [18]) of the same compound?
The MIC was 9.37 µM (≈ 3.57 µg/mL).

With `CCOC(=O)c1nn(-c2ccc(Cl)cc2)cc1C(=O)c1cc2cc(CN3CCN(Cc4ccc5oc(C(=O)c6cn(-c7ccc(Cl)cc7)nc6C(=O)OCC)cc5c4)CC3)ccc2o1` as the compound, how does the IC50 (Staphylococcus aureus [19]) read?
Its IC50 is 4.2 µM.

With `Cc1ccc(NC(=O)Cn2c(N)nc(Cc3ccc(C(C)(C)C)cc3)c2-c2ccccc2Br)cc1` as the compound, how does the IC50 (Pseudomonas aeruginosa [20]) read?
Its IC50 is 100 µM.
